Laboratory results from ChEMBL document CHEMBL1201862, “PubChem BioAssay data set” (2004).
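Step 1: Grow cells in 96-well plates. Step 2: Expose to compound for 48 hours at 5 concentrations. Step 3: Interpolate endpoints linearly; if unreached, use highest concentration. GI50 marks 50% less growth.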 Calls of active or inactive are those of the source. Cut-off read from the data, not from the text of the source: active = GI50 up to about 1.1 µM and inactive = higher.

Assays:
Assay in all cases: NCI-60 cell line screen, 48 h
[1] = tested on: NCI-H226
[2] = tested on: SF-268
[3] = tested on: HCT-116
[4] = tested on: HCT-15
[5] = tested on: NCI-H23
[6] = tested on: SF-539
[7] = tested on: SR
[8] = tested on: SF-295
[9] = tested on: MOLT-4
[10] = tested on: SK-MEL-5
[11] = tested on: SN12C
[12] = tested on: LXFL 529
[13] = tested on: SNB-75
[14] = tested on: M14
[15] = tested on: KM12
[16] = tested on: OVCAR-4
[17] = tested on: Hs-578T
[18] = tested on: MDA-MB-231
[19] = tested on: BT-549
[20] = tested on: NCI/ADR-RES

With `COc1cccc(NC(=O)C(=O)C2C=CCS2(=O)=O)c1` (configuration not stated) the GI50 [1] was > 100 µM (inactive), the GI50 [2] was > 100 µM (inactive) and the GI50 [3] was > 100 µM (inactive). The GI50 [4] was > 100 µM, the GI50 [5] was > 100 µM (inactive) and the GI50 [6] was > 100 µM (inactive). The GI50 [7] was > 100 µM (inactive), the GI50 [8] was > 100 µM (inactive) and the GI50 [9] was > 100 µM (inactive). For the same compound, the GI50 [10] was > 100 µM (inactive), the GI50 [11] was > 100 µM (inactive) and the GI50 [12] was > 100 µM (inactive). For the same compound, the GI50 [13] was 56 µM (inactive), the GI50 [14] was > 100 µM (inactive) and the GI50 [15] was > 100 µM (inactive). For the same compound, the GI50 [16] was > 100 µM (inactive).

`C#CCNC(=O)NCCCCC(NC(=O)OCc1ccccc1)C(=O)OCc1ccccc1` (configuration not stated) was tested, and the GI50 [1] was > 100 µM (inactive), the GI50 [3] was > 68.2 µM (inactive) and the GI50 [4] was > 86.5 µM. For the same compound, the GI50 [5] was > 64.3 µM (inactive), the GI50 [6] was > 60.5 µM (inactive) and the GI50 [7] was 45 µM (inactive). The GI50 [8] was > 100 µM (inactive), the GI50 [9] was 22.2 µM (inactive) and the GI50 [10] was > 100 µM (inactive). For the same compound, the GI50 [11] was > 83.8 µM (inactive), the GI50 [12] was 40.3 µM (inactive) and the GI50 [13] was > 72.4 µM (inactive). For the same compound, the GI50 [14] was 37.6 µM (inactive), the GI50 [15] was 29.8 µM (inactive) and the GI50 [16] was > 78.3 µM (inactive).

For `CCOC1c2cc(OC)c(OC)cc2-c2ccc3ccccc3c2N1C` (configuration not stated), the GI50 [1] was 19.2 µM (inactive), the GI50 [2] was 2.05 µM (inactive) and the GI50 [17] was 6.4 µM (inactive). For the same compound, the GI50 [3] was 8.59 µM (inactive), the GI50 [4] was 60.1 µM and the GI50 [5] was 8 µM (inactive). The GI50 [6] was 18.2 µM (inactive), the GI50 [7] was 7.78 µM (inactive) and the GI50 [18] was 13.5 µM (inactive). The GI50 [19] was 12.6 µM (inactive), the GI50 [8] was 24.4 µM (inactive) and the GI50 [9] was 4.43 µM (inactive). The GI50 [20] was 29.7 µM (inactive), the GI50 [10] was 16.4 µM (inactive) and the GI50 [11] was 7.76 µM (inactive). The GI50 [12] was 5.96 µM (inactive), the GI50 [13] was 11.8 µM (inactive) and the GI50 [14] was 19.3 µM (inactive). For the same compound, the GI50 [15] was 2.66 µM (inactive) and the GI50 [16] was 19 µM (inactive).

`O=C(Nc1cc(Cl)c(Cl)cc1Cl)C(=O)C1C(=O)NC(=S)NC1=O` was tested, and the GI50 [1] was > 100 µM (inactive), the GI50 [2] was > 100 µM (inactive) and the GI50 [3] was > 100 µM (inactive). The GI50 [4] was > 100 µM, the GI50 [5] was > 100 µM (inactive) and the GI50 [6] was > 100 µM (inactive). For the same compound, the GI50 [7] was > 100 µM (inactive), the GI50 [8] was > 100 µM (inactive) and the GI50 [9] was > 100 µM (inactive). For the same compound, the GI50 [10] was > 100 µM (inactive), the GI50 [11] was > 100 µM (inactive) and the GI50 [12] was > 100 µM (inactive). The GI50 [13] was > 100 µM (inactive), the GI50 [14] was > 100 µM (inactive) and the GI50 [15] was > 100 µM (inactive). The GI50 [16] was > 100 µM (inactive).

With `O=[N+]([O-])c1cc(C(F)(F)F)cc([N+](=O)[O-])c1CCl` the GI50 [1] was 1.57 µM (inactive), the GI50 [2] was 4.09 µM (inactive) and the GI50 [3] was 0.897 µM (active). For the same compound, the GI50 [4] was 1.58 µM, the GI50 [5] was 1.69 µM (inactive) and the GI50 [6] was 4.81 µM (inactive). The GI50 [7] was 0.388 µM (active), the GI50 [8] was 5.78 µM (inactive) and the GI50 [9] was 0.248 µM (active). For the same compound, the GI50 [10] was 0.456 µM (active), the GI50 [11] was 1.55 µM (inactive) and the GI50 [12] was 0.228 µM (active). For the same compound, the GI50 [13] was 4.5 µM (inactive), the GI50 [14] was 0.53 µM (active) and the GI50 [15] was 2.23 µM (inactive). The GI50 [16] was 1.63 µM (inactive).

`CC1CCC2(OC1)OC1CC3C4CCC5CC(O)CCC5(C)C4CC(=O)OC3(C)C1C2C` (configuration not stated) was tested, and the GI50 [2] was > 100 µM (inactive), the GI50 [3] was > 100 µM (inactive) and the GI50 [4] was > 100 µM. The GI50 [5] was > 100 µM (inactive), the GI50 [6] was > 100 µM (inactive) and the GI50 [7] was > 100 µM (inactive). For the same compound, the GI50 [8] was > 100 µM (inactive), the GI50 [9] was > 100 µM (inactive) and the GI50 [10] was > 100 µM (inactive). The GI50 [11] was > 100 µM (inactive), the GI50 [12] was > 100 µM (inactive) and the GI50 [13] was > 100 µM (inactive). For the same compound, the GI50 [14] was > 100 µM (inactive), the GI50 [15] was > 100 µM (inactive) and the GI50 [16] was > 100 µM (inactive).

For `O=C(/C=C/c1ccc(OCCCOc2ccc(/C=C/C(=O)c3ccc(Cl)cc3)cc2)cc1)c1ccc(Cl)cc1`, the GI50 [1] was > 100 µM (inactive), the GI50 [2] was > 100 µM (inactive) and the GI50 [3] was > 100 µM (inactive). The GI50 [4] was > 100 µM, the GI50 [5] was > 100 µM (inactive) and the GI50 [6] was > 100 µM (inactive). For the same compound, the GI50 [7] was > 100 µM (inactive), the GI50 [8] was > 100 µM (inactive) and the GI50 [9] was > 100 µM (inactive). For the same compound, the GI50 [10] was > 100 µM (inactive), the GI50 [11] was > 100 µM (inactive) and the GI50 [12] was > 100 µM (inactive). For the same compound, the GI50 [13] was 34.6 µM (inactive), the GI50 [14] was > 100 µM (inactive) and the GI50 [15] was > 100 µM (inactive). For the same compound, the GI50 [16] was > 100 µM (inactive).

In the case of `COC(=O)C12C3C4C1C1C2C3C41C(=O)N(C(C)C)C(C)C` (configuration not stated), the GI50 [1] is reported as > 100 µM (inactive), the GI50 [2] is reported as > 100 µM (inactive) and the GI50 [3] is reported as > 100 µM (inactive). For the same compound, the GI50 [4] was > 100 µM, the GI50 [5] was > 100 µM (inactive) and the GI50 [6] was > 100 µM (inactive). The GI50 [7] was > 100 µM (inactive), the GI50 [8] was > 100 µM (inactive) and the GI50 [9] was > 100 µM (inactive). For the same compound, the GI50 [10] was > 100 µM (inactive), the GI50 [11] was > 100 µM (inactive) and the GI50 [12] was > 100 µM (inactive). The GI50 [13] was 50.2 µM (inactive), the GI50 [14] was > 100 µM (inactive) and the GI50 [15] was > 100 µM (inactive). The GI50 [16] was > 100 µM (inactive).

For `O=C(CC(C(=O)c1ccsc1)c1cccs1)c1cccs1` (configuration not stated), the GI50 [1] was > 100 µM (inactive), the GI50 [2] was > 100 µM (inactive) and the GI50 [3] was 43.4 µM (inactive). The GI50 [4] was 65.5 µM, the GI50 [5] was > 100 µM (inactive) and the GI50 [6] was > 100 µM (inactive). For the same compound, the GI50 [7] was 29.6 µM (inactive), the GI50 [8] was 37.5 µM (inactive) and the GI50 [9] was 33 µM (inactive). The GI50 [10] was 22.9 µM (inactive), the GI50 [11] was 65.8 µM (inactive) and the GI50 [12] was 38.5 µM (inactive). The GI50 [13] was 28.1 µM (inactive), the GI50 [14] was 59.3 µM (inactive) and the GI50 [16] was 48.6 µM (inactive).

For `O=C(/C=C1\Nc2ccccc2C(=O)N1c1ccccc1Cl)c1ccccc1`, the GI50 [1] was > 100 µM (inactive), the GI50 [2] was > 100 µM (inactive) and the GI50 [3] was 36.5 µM (inactive). The GI50 [4] was > 100 µM, the GI50 [5] was > 100 µM (inactive) and the GI50 [6] was > 100 µM (inactive). The GI50 [7] was > 100 µM (inactive), the GI50 [8] was > 100 µM (inactive) and the GI50 [9] was 76.4 µM (inactive). For the same compound, the GI50 [10] was > 100 µM (inactive), the GI50 [11] was > 100 µM (inactive) and the GI50 [12] was > 100 µM (inactive). The GI50 [13] was 32.7 µM (inactive), the GI50 [14] was > 100 µM (inactive) and the GI50 [15] was 84.1 µM (inactive). For the same compound, the GI50 [16] was 67.5 µM (inactive).

In the case of `COc1cccc(NC(=O)C(C)(C)C)c1C=O`, the GI50 [1] is reported as 33.4 µM (inactive), the GI50 [2] is reported as 47.5 µM (inactive) and the GI50 [3] is reported as 35.6 µM (inactive). For the same compound, the GI50 [4] was 35.4 µM, the GI50 [5] was 48.3 µM (inactive) and the GI50 [6] was 68.4 µM (inactive). The GI50 [7] was 26.5 µM (inactive), the GI50 [8] was 67.6 µM (inactive) and the GI50 [9] was 31 µM (inactive). The GI50 [10] was 88.1 µM (inactive), the GI50 [11] was 63.1 µM (inactive) and the GI50 [12] was 33.7 µM (inactive). For the same compound, the GI50 [13] was 39.3 µM (inactive), the GI50 [14] was 70.8 µM (inactive) and the GI50 [15] was 42.3 µM (inactive). For the same compound, the GI50 [16] was 46.1 µM (inactive).

For `CSC(=S)NNC(=O)c1ccncc1`, the GI50 [1] was 18.2 µM (inactive), the GI50 [2] was 21.6 µM (inactive) and the GI50 [3] was 21 µM (inactive). For the same compound, the GI50 [4] was 15 µM, the GI50 [5] was 16.1 µM (inactive) and the GI50 [6] was 19.8 µM (inactive). For the same compound, the GI50 [7] was 14.6 µM (inactive), the GI50 [8] was 22.6 µM (inactive) and the GI50 [9] was 23.2 µM (inactive). The GI50 [10] was 23.7 µM (inactive), the GI50 [11] was 21.4 µM (inactive) and the GI50 [12] was 15.7 µM (inactive). For the same compound, the GI50 [13] was 17.5 µM (inactive), the GI50 [14] was 19 µM (inactive) and the GI50 [15] was 40.7 µM (inactive).
